Molecules are shown by their SMILES.

T2 sequence (Q96GD4 whole entry): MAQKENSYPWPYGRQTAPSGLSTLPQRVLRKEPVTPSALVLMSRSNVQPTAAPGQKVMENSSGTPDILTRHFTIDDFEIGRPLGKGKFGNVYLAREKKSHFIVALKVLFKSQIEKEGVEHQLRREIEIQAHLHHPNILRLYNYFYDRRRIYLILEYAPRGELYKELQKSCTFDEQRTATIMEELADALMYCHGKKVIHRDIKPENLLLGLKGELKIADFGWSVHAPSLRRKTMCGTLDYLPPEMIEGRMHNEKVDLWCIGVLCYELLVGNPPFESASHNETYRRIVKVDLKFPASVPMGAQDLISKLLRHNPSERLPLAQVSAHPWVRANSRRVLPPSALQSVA

The target of the first experiment is T1, recombinant human FAK1 (Homo sapiens, UniProt Q05397).
T1 construct: fused on or other part: N-terminal 6xHis tag
T1 sequence (Q05397 422-680 limits assumed): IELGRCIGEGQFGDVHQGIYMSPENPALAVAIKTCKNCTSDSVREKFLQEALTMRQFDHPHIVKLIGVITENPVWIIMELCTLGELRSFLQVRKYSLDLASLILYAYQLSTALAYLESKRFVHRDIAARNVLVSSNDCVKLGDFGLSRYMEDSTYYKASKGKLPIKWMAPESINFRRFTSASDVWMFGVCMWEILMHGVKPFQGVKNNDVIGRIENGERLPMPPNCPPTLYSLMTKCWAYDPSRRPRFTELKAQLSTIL
Briefly: FAK1 HTRF assay. It is filed as biochemical.
Conditions: not given
Here is the method:
Active FAK1 was prepared for use in the Homogeneous Time-Resolved Fluorescence (HTRF) assay. Briefly, N-terminal 6 His tagged recombinant human FAK1, from residue 692-end (GenBank accession no. L13616) was expressed by Bacculovirus in sf9 cells. […] A 1.6 mg/mL (45 μM) stock was used in the HTRF assay at a final concentration of 10 nM.
Gastrin precursor (tyr87) biotinylated peptide which contains the residues surrounding tyrosine 87 (EEAY*GWM) of gastrin precursor was obtained (Cell Signaling Tech, Item no. 1310, Lot 7). The peptide was provided at a stock concentration of 6 μM, and used a final concentration of 0.5 μM in the HTRF assay.
10 mM stock in 100 μL Enzyme assay buffer pH7.4 was prepared freshly and used at a final concentration of 10 μM in the assay.
Powders were dissolved in 100% DMSO to a final stock concentration of 10 mM. The volume needed (in μL) to add for 10 mM=mg powder is 10^5/MW of compound. The final compound concentration in the assay plate started at 10 μM.
Pfizer FAK inhibitor PF-562271 (N-methyl-N-(3-(((2-((2-oxoindolin-5-yl)amino)-5-(trifluoromethyl)pyrimidin-4-yl)amino)methyl)pyridin-2-yl)methanesulfonamide) was prepared as per the reported procedure from US Patent Publication No. 2005/256145A1.
Streptavidin-Allophycocyanin was obtained (Prozyme, Cat. No. PJ25S. SA-APC was provided at a stock concentration of 2.06 mg/mL, where APC concentration was 11.6 μM and the streptavidin concentration was 15.5 μM. SA-APC was used at a final concentration of 12 nM in the assay (based on streptavidin concentration).
This reagent was obtained from Perkin ElmerAD0068. Europium-W1024-PT-66 Anti Phospho Tyrosine Ab is a monoclonal IgG1 that recognizes phospho tyrosine peptide. 100 μg/mL stock was used at a final concentration of 0.1 nM in the assay.
• 1. The compound dilutions were made by TECAN liquid handler as per the scheme in FIG. 1. • 2. 16 μL of diluted compound was added to each well of the assay plate using TECAN liquid handler. • 3. 20 μL of substrate mix (biotinylated gastrin precursor) was added into each well of the assay plate manually. • 4. 10 μL of enzyme mix (FAK1) was added to each well except mins. • 5. The plate was incubated at rt for 45 min with shaking. • 6. The HTRF mix was prepared and 75 μL was added to the HTRF plate. • 7. After the incubation was over, 10 μL of the mixture was transferred to the HTRF assay plate and incubated for 45 min at rt with shaking. • 8. The readings were taken in Pherastar in HTRF mode (ext 337 nm, em 665 & 620 nm) • 9. The results were analyzed using Graphpad Prism® software after calculation the z factor signal window and % inhibition. • 10. The IC50 was calculated.
In general terms: TR-FRET usually uses a lanthanide donor and a delayed reading to cut background.
Broadly, the IC50 is the concentration that inhibits the measured activity by half. As for `C[C@H]1CNCCN1c1ccc(Nc2cc3c(ccn3S(=O)(=O)c3cccc4cccnc34)cn2)cc1` [Example 478], the half-inhibitory concentration (IC50) is less than 20 nM.

With `C[C@H](O)CN1CCN(c2ccc(Nc3ncc4ccn(Cc5ccccc5N(C)S(C)(=O)=O)c4n3)cc2)C[C@@H]1C` [Example 695, N-(2-((2-((4-((S)-4-((S)-2-hydroxypropyl)-3-methylpiperazin-1-yl)phenyl)amino)-7H-pyrrolo[2,3-d]pyrimidin-7-yl)methyl)phenyl)-N-methylmethanesulfonamide], the IC50 is less than 20 nM. Same read-out and setting: for `COc1cc(Nc2ncc3ccn(S(=O)(=O)c4cccc5cccnc45)c3n2)ccc1N1CCN(CCO)CC1` [Example 431] the value was less than 20 nM; for `CN(C)c1cccc(Nc2ncc3ccn(Cc4cccnc4N(C)S(C)(=O)=O)c3n2)c1` [Example 139], less than 20 nM. `Cc1cc(Nc2cc3c(ccn3S(=O)(=O)c3ccccc3C#N)cn2)ccc1N1CCNCC1` [Example 390]: the IC50 is less than 20 nM.

In the case of `O=S(=O)(c1cccc2cccnc12)n1ccc2cnc(Nc3ccc(N4CCC(O)CC4)cc3)cc21` [Example 346], the IC50 is less than 20 nM.

With `O=S(=O)(c1cccc2cccnc12)n1ccc2cnc(Nc3ccc4ncsc4c3)nc21` [Example 381], the IC50 is less than 20 nM. Same read-out and setting: the result for `C[C@H](O)CN1CCN(c2ccc(Nc3ncc4ccn(Cc5ccccc5N(C)S(C)(=O)=O)c4n3)cc2)CC1` [Example 632] reads less than 20 nM. Same read-out and setting: for `CC(=O)Nc1cccc(Nc2cc3c(cn2)c(C)nn3Cc2cccnc2N(C)S(C)(=O)=O)c1` [Example 68] the value was greater than 1000 nM. Take `C[C@H]1CN(C)CCN1c1ccc(Nc2ncc3ccn(Cc4ccccc4N(C)S(C)(=O)=O)c3n2)cc1` [Example 495]: the IC50 was less than 20 nM. Turning to `CN(c1ccccc1Cn1ccc2cnc(Nc3ccc(NC(=O)C4CC4)cc3)nc21)S(C)(=O)=O` [Example 450], the IC50 is less than 20 nM.

A further experiment concerns the target T2, AURKB (Aurora B) enzyme (Homo sapiens, UniProt Q96GD4).
T2 construct: purchased Invitrogen PVR 130
Briefly: Aurora B HTRF assay. It is filed as biochemical. As to conditions: read-out: AuroraB IC50. Here is the method:
AURKB (Aurora B) enzyme was obtained (Invitrogen, Cat No. PVR 130, Lot No. 857013J). A 8.64 μM stock was used at a final concentration 5 nM in the assay.
Lance@Ultera Ulight-PLK (Ser137) peptide substrate
Peptide substrate was obtained from Perkin Elmer (Lot#1629793, TRF0110-M). A 5 μM stock was used at a final concentration of 50 nM in the assay.
10 mM stock prepared freshly as above, used at a final concentration of 30 μM in assay.
The plate was covered with aluminum foil, put on a shaker and incubated 1 h at rt.
Reference: Pfizer aurora inhibitor PF-03814735 was procured from Selleckchem: Cat# S2725
Using stock Lance detection buffer, 1× Lance detection buffer was prepared. • 1. 10× lance detection buffer was diluted to 1×, mixed well and 100 μL was removed, and was used to substitute with antibody and EDTA (for a total of 2200 μL). • 2. 88 μL of […] EDTA was added from 500 mM stock. • 3. 14 μL Europium labeled antibody (LANCE@ Ultra EU-Anti-P-PLK(Ser 137), TRF0203-D, Lot No. 1630351, Perkin Elmer) was added from 625 nM stock; required concentration was 2 nM in the assay. • 4. The buffer well was mixed and 20 μL was transferred to the each well in the assay plate. • 5. The solutions were incubated for 1 h at rt. • 6. The plate was read using MET-HTRF® protocol using Pherastar equipment.
Consider `C[C@H]1CNCCN1c1ccc(Nc2cc3c(ccn3S(=O)(=O)c3cccc4cccnc34)cn2)cc1` [Example 478], for which the concentration for half-maximal inhibition (IC50) is less than 20 nM. The same measure, in the same setting: the result for `c1cnc2c(Cn3ccc4cnc(Nc5ccc(N6CCNCC6)cc5)nc43)cccc2c1` [Example 378] reads less than 20 nM; that for `C[C@H](O)CN1CCN(c2ccc(Nc3ncc4ccn(Cc5ccccc5N(C)S(C)(=O)=O)c4n3)cc2)C[C@@H]1C` [Example 695, N-(2-((2-((4-((S)-4-((S)-2-hydroxypropyl)-3-methylpiperazin-1-yl)phenyl)amino)-7H-pyrrolo[2,3-d]pyrimidin-7-yl)methyl)phenyl)-N-methylmethanesulfonamide], less than 20 nM. On the same count and under the same terms, the result for `COc1cc(Nc2ncc3ccn(S(=O)(=O)c4cccc5cccnc45)c3n2)ccc1N1CCN(CCO)CC1` [Example 431] reads less than 20 nM.

Take `CN(C)c1cccc(Nc2ncc3ccn(Cc4cccnc4N(C)S(C)(=O)=O)c3n2)c1` [Example 139]: the IC50 was less than 20 nM. Consider `Cc1cc(Nc2cc3c(ccn3S(=O)(=O)c3ccccc3C#N)cn2)ccc1N1CCNCC1` [Example 390], for which the IC50 was less than 20 nM. `C[C@@H]1CNCCN1c1ccc(Nc2ncc3ccn(Cc4ccccc4N(C)S(C)(=O)=O)c3n2)cc1` [Example 482]: the IC50 was less than 20 nM. On the same count and under the same terms, for `O=S(=O)(c1cccc2cccnc12)n1ccc2cnc(Nc3ccc(N4CCC(O)CC4)cc3)cc21` [Example 346] the value was less than 20 nM; for `CC(=O)Nc1ccc(Nc2cc3c(cn2)cnn3Cc2ccccc2OC(F)F)nc1` [Example 73], greater than 1000 nM; for `C[C@@H]1CN(C)CCN1c1ccc(Nc2ncc3ccn(Cc4ccccc4N(C)S(C)(=O)=O)c3n2)cc1` [Example 488], less than 20 nM. The same measure, in the same setting: the result for `O=S(=O)(c1cccc2cccnc12)n1ccc2cnc(Nc3ccc4ncsc4c3)nc21` [Example 381] reads less than 20 nM; that for `CN(c1ccccc1Cn1ccc2cnc(Nc3ccc(N4CCNC(CO)C4)cc3)nc21)S(C)(=O)=O` (stereo not drawn) [Example 602], less than 20 nM; that for `C[C@H](O)CN1CCN(c2ccc(Nc3ncc4ccn(Cc5ccccc5N(C)S(C)(=O)=O)c4n3)cc2)CC1` [Example 632], less than 20 nM. Take `CC1(C)CN(S(=O)(=O)c2cccc3cccnc23)c2nc(Nc3ccc(N4CCNCC4)c(F)c3)ncc21` [Example 524]: the IC50 was greater than 1000 nM. On the same count and under the same terms, for `CC(=O)Nc1ccc(Nc2cc3c(cn2)cnn3Cc2ccccc2OC(F)F)cc1` [Example 75] the value was greater than 1000 nM; for `CN(C)CCOc1cccc(Nc2ncc3ccn(S(=O)(=O)c4ccccc4C#N)c3n2)c1` [Example 173], less than 20 nM; for `CC1(C)CN(S(=O)(=O)c2ccccc2C#N)c2nc(Nc3ccc(N4CCNCC4)cc3)ncc21` [Example 461], greater than 1000 nM. For `C[C@H]1CNCCN1c1ccc(Nc2ncc3c(n2)N(S(=O)(=O)c2cccc4cccnc24)CC3(C)C)cc1` [Example 564], the IC50 is greater than 1000 nM.

Consider `CN(c1ccccc1Cn1ccc2cnc(Nc3ccc(N4CCNC(C)(C)C4=O)cc3)nc21)S(C)(=O)=O` [Example 552], for which the IC50 was less than 20 nM.

As to `C[C@@H]1CN(c2ccc(Nc3ncc4c(n3)N(S(=O)(=O)c3ccccc3C#N)CC4(C)C)cc2)CCN1` [Example 466], the concentration for half-maximal inhibition (IC50) is greater than 1000 nM. `Cc1ccc2cccc(S(=O)(=O)n3ccc4cnc(Nc5ccc(N6CCNCC6)cc5)nc43)c2n1` [Example 367]: the half-inhibitory concentration (IC50) was less than 20 nM. Turning to `CN(c1ncccc1Cn1ccc2cnc(Nc3ccc4nn[nH]c4c3)nc21)S(C)(=O)=O` [Example 189], the IC50 was less than 20 nM. Consider `CN1CCN(c2ccc(Nc3ncc4c(n3)N(S(=O)(=O)c3cccc5cccnc35)CC4(C)C)cc2)CC1` [Example 498], for which the IC50 is greater than 1000 nM.

In the case of `CN(C)C1CN(c2ccc(Nc3ncc4ccn(Cc5ccccc5N(C)S(C)(=O)=O)c4n3)cc2F)C1` [Example 608], the IC50 was less than 20 nM. The same measure, in the same setting: the result for `C[C@H](O)CN1CCN(c2ccc(Nc3ncc4ccn(Cc5ccccc5N(C)S(C)(=O)=O)c4n3)cc2)C[C@H]1C` [Example 692] reads less than 20 nM; that for `N#Cc1ccccc1S(=O)(=O)n1ccc2cnc(Nc3ccc(C4CNCCN4)cc3)cc21` (stereo not drawn) [Example 614], less than 20 nM; that for `Cc1nn(Cc2cccnc2N(C)S(C)(=O)=O)c2cc(Nc3ccc4c(c3)CCC(=O)N4)ncc12` [Example 69], greater than 1000 nM. As to `C[C@H](O)CN1CCN(c2ccc(Nc3cc4c(ccn4S(=O)(=O)c4ccccc4C#N)cn3)cc2)CC1` [Example 631], the IC50 is less than 20 nM. With `C[C@H]1CN(c2ccc(Nc3ncc4ccn(Cc5cccnc5N(C)S(C)(=O)=O)c4n3)cc2)CCN1C` [Example 487], the IC50 is less than 20 nM. The same measure, in the same setting: for `CN(c1ccccc1Cn1ccc2cnc(Nc3ccc(C4CNCCN4)cc3)nc21)S(C)(=O)=O` (stereo not drawn) [Example 610] the value was less than 20 nM; for `CN(c1ncccc1CN1C(=O)Cc2cnc(Nc3ccc(N4CCC(O)CC4)cc3)nc21)S(C)(=O)=O` [Example 404], greater than 1000 nM. As to `Nc1ccccc1S(=O)(=O)n1ccc2cnc(Nc3ccc4c(c3)CCC(=O)N4)nc21` [Example 164], the IC50 was less than 20 nM.

For the compound `C[C@H]1CN(c2ccc(Nc3ncc4ccn(Cc5ccccc5N(C)S(C)(=O)=O)c4n3)cc2F)CCN1` [Example 557], the IC50 is less than 20 nM. On the same count and under the same terms, the result for `CN(C)S(=O)(=O)c1ccccc1Cn1ccc2cnc(Nc3ccc(N4CCNCC4)cc3)nc21` [Example 200] reads less than 20 nM. The same measure, in the same setting: for `CN(C)C1CCCN(c2ccc(Nc3ncc4ccn(Cc5ccccc5N(C)S(C)(=O)=O)c4n3)cc2)C1` (stereo not drawn) [Example 598] the value was less than 20 nM. Consider `N#Cc1ccccc1S(=O)(=O)n1ccc2cnc(Nc3ccc4c(c3)CC3CNCCN43)cc21` (stereo not drawn) [Example 551], for which the IC50 is less than 20 nM.

On to `Cc1cc(Nc2ncc3c(n2)N(S(=O)(=O)c2cccc4cccnc24)CC3(C)C)ccc1N1CCC(N(C)C)CC1` [Example 648], for which the IC50 is greater than 1000 nM. `CN(c1ccccc1Cn1ccc2cnc(Nc3ccc(N4CCC(N)CC4)cc3)nc21)S(C)(=O)=O` [Example 463]: the IC50 is less than 20 nM. The same measure, in the same setting: the result for `C[C@H]1CN(c2ccc(Nc3ncc4c(n3)N(S(=O)(=O)c3cccc5cccnc35)CC4(C)C)cc2F)CCN1` [Example 554] reads greater than 1000 nM; that for `CN(c1ncccc1Cn1ccc2cnc(Nc3cccc(CO)c3)nc21)S(C)(=O)=O` [Example 166], less than 20 nM.

Source of the values: US20160222014A1, “COMPOUNDS FOR REGULATING FAK AND/OR SRC PATHWAYS” (ASANA BIOSCIENCES, LLC, priority 2013, published 2016).
